Measurements: patent publication US20250325529A1, “INHIBITORS OF FATTY ACID BINDING PROTEINS (FABPs), METHODS OF USE AND METHODS OF MAKING” (Celloram, inc., priority 2024, published 2025)
pIC50, pKd: −log10 of the molar value. Entries after “also recorded” stand apart in the source; their conditions may differ.

Columns and labels:
FABP5 = FABP5 (Homo sapiens (Human), UniProt Q01469); test: Fluorescence (ANS) competition binding assay, FABP5; details: ANS displacement
Procedure: (§1) This example illustrates a two-step fluorescence binding assay study used to determine the binding affinity of the various inhibitor compounds disclosed herein with the various FABPs: FABP3, FABP4, FABP5 and FABP7. Further secondary screening studies were carried out for compounds with high binding affinities toward the FABPs and based on their ability to activate the nuclear receptors PPARα, PPARγ, or PPARδ.
(§2) Binding assays for FABP3, FABP4, FABP5 and FABP7 were carried out by fluorescence titrations. His-tagged FABPs were bacterially expressed in E. coli, purified using Ni Sepharose beads, and the equilibrium dissociation constants (Kd) that characterize their interactions with different inhibitor compounds were measured by fluorescence competition assays. The method entails two steps as described in e.g., Lin, Q. et al., “Ligand selectivity of the peroxisome proliferator-activated receptor alpha,” Biochemistry 38, 185-190, doi:10.1021/bi9816094 [pii](1999). In the first step, Kd for the association of the protein with the fluorescent fatty acid probe ANS was measured. Protein (2 μM) was titrated with ANS from a concentrated solution in DMSO. Ligand binding was monitored by following the increase in the fluorescence of the ligand upon binding to the protein, and Kd for the association of ANS with the each FABP was computed from titration curves as described in e.g., Norris, A. W. & Li, E., “Fluorometric titration of the CRABPs,” Methods Mol Biol 89, 123-139 (1998)). In the second step, Kds for binding of non-fluorescent ligands were measured by monitoring their ability to displace ANS in the binding pocket of the protein. Each FABP was precomplexed with ANS at 1:1 molar ratio and titrated with the different compounds whose binding was reflected by a decrease in probe fluorescence. Kds were extracted from the EC50 of the competition curve and the measured Kd for ANS.

FABP4 = FABP4 (Homo sapiens (Human), UniProt P15090); test: Fluorescence (ANS) competition binding assay, FABP4; details: ANS displacement
Procedure: as §1, §2

FABP3 = FABP3 (Homo sapiens (Human), UniProt P05413); test: Fluorescence (ANS) competition binding assay, FABP3; details: ANS displacement
Procedure: as §1, §2

FABP7 = FABP7 (Homo sapiens (Human), UniProt O15540); test: Fluorescence (ANS) competition binding assay, FABP7; details: ANS displacement
Procedure: as §1, §2

PPARα = PPARα (Homo sapiens (Human), UniProt Q07869); test: Transcriptional activation assay in COS7 cells, PPARα; assay type: cell-based; details: PPRE luciferase reporter, PD151 and PD152 at 10 μM
Procedure: (§3) COS-7 were cultured in 6-well plates and co-transfected with either a luciferase reporter driven by 3 copies of a PPRE and expression vector for either PPARδ, PPARα or PPARγ together with a vector harboring cDNA for β-galactosidase, serving as a transfection control. To test whether FABP4 or FABP5 mediate activation of their cognate receptors PPARγ and PPARδ, respectively, cells were also co-transfected with a plasmid harboring sequence of either FABP4 or FABP5. 18 h post-transfection, cells were placed in a serum-free medium and treated with agonist/compound. 18 h. later, cells were lysed, luciferase activity was assayed (Promega, WI, USA) and corrected for transfection efficiency by the activity of β-galactosidase.
(§4) Transcriptional activation assays were carried out utilizing COS7 cells as described above.

PPARγ = PPARγ (Homo sapiens (Human), UniProt P37231); test: Transcriptional activation assay in COS7 cells, PPARγ; assay type: cell-based; details: PPRE luciferase reporter, PD151 and PD152 at 10 μM
Procedure: as §3, §4

PPARδ = PPARδ (Homo sapiens (Human), UniProt Q03181); test: Transcriptional activation assay in COS7 cells, PPARδ; assay type: cell-based; details: PPRE luciferase reporter, PD151 and PD152 at 10 μM
Procedure: as §3, §4

MB-231 cells = test: Proliferation assay (Incucyte confluency), MB-231; assay type: cell-based; details: Homo sapiens, 96 h, 4 days, read-out: IC50, inhibition of proliferation
Procedure: (§5) COS-7, MDA-MB-231, and HepG2, were cultured in Dulbecco's modified Eagle's medium (DMEM) supplemented with 10% fetal bovine serum (Invitrogen Life Sciences, Carlsbad, CA). BT-549, OVCAR5 and OVCAR8 cells were cultured in L-Glutamine containing RPMI medium supplemented with 10% fetal calf serum (Invitrogen Life Sciences, Carlsbad, CA). The primary Human Mammary Epithelial Cells (HMEC) were cultured in mammary epithelial cell complete medium (basal medium plus rH-Insulin (5 μg/mL); L-Glutamine (6 mM); Epinephrine (1 μM); Apo-Transferrin (5 μg/mL); rH-TGF-α (0.5 ng/mL); ExtractP (0.4%); Hydrocortisone Hemisuccinate (100 ng/mL)).
(§6) 2000 cells were plated in each well of 96-well plate. The next day cells were treated with compounds and incubated in Incucyte for 4 days. Images taken every 4 hours for the duration of the time were analyzed to calculate percentage of confluency in response to the treatments. Growth inhibition was calculated as 1—(percentage of viable cells out of untreated cells).

BT-549 cells = test: Proliferation assay (Incucyte confluency), BT-549; assay type: cell-based; details: Homo sapiens, 96 h, 4 days, read-out: IC50, inhibition of proliferation
Procedure: as §5, §6

OVCAR8 cells = test: Proliferation assay (Incucyte confluency), OVCAR8; assay type: cell-based; details: Homo sapiens, OVCAR-8, 96 h, 4 days, read-out: IC50, inhibition of OVCAR8 proliferation
Procedure: as §5, §6

OVCAR5 cells = test: Proliferation assay (Incucyte confluency), OVCAR5; assay type: cell-based, human; details: 4 days
Procedure: as §5, §6

[1] = Single dose IV and PO PK study in C57BL/6 mice; assay type: in vivo; details: male C57BL/6 mice
Procedure: C57BL/6 male mice or Han Wistar rats were used, n=3 for each administration route and compound. Single dose of each compound was administered orally (PO, 10 mg/Kg) or by intravenous administration (IV, 1 mg/Kg). Following intravenous and oral administration, blood samples (ca 0.2 mL) were collected and compound amount was measured by HLPC. For IV group, blood samples were collected at 0.083, 0.25, 0.5, 1, 2, 4, 6, 8, and 24 hours post-dose. For PO group, blood samples were collected at 0.25, 0.5, 1, 2, 4, 6, 8, and 24 hours post-dose.

[2] = mouse, plasma, intravenous 1 mg/kg

Chain of PPARα (Q07869 whole entry, species assumed): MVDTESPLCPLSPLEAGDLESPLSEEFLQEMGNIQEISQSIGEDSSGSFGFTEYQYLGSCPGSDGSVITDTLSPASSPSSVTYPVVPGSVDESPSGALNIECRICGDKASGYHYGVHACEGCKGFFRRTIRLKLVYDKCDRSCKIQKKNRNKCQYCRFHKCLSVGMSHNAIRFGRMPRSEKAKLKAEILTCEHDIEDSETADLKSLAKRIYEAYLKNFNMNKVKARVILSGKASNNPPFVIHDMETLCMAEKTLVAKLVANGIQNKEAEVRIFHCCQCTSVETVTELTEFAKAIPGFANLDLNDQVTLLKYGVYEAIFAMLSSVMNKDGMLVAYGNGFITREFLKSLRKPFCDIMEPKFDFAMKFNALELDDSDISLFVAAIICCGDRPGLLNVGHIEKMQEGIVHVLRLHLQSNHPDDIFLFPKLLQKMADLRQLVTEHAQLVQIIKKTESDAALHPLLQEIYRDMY
Chain of PPARδ (Q03181 whole entry, species assumed): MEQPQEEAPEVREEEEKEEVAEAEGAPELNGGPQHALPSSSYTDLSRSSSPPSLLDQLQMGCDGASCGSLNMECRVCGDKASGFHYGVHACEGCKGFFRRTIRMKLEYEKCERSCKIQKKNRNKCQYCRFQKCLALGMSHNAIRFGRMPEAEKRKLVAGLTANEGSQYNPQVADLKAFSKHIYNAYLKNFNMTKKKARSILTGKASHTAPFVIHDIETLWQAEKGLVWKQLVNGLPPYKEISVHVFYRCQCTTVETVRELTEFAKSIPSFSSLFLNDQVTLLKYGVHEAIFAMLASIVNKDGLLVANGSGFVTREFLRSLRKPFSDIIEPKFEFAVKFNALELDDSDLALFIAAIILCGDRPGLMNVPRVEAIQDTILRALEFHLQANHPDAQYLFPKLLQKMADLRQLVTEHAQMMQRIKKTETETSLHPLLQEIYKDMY
Chain of PPARγ (P37231 whole entry, species assumed): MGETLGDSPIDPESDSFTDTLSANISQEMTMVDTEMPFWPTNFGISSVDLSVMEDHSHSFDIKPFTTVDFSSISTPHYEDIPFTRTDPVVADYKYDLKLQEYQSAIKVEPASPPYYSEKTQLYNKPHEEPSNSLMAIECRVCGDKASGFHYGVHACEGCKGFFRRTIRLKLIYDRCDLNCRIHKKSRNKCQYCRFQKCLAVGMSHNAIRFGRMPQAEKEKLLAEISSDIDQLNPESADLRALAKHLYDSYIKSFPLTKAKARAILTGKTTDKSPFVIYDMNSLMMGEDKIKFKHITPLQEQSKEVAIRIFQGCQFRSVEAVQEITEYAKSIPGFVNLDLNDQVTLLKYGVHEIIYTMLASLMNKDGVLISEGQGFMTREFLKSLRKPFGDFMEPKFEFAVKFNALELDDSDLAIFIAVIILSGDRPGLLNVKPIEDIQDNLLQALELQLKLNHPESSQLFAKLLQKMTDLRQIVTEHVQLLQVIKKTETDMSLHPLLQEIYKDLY
Chain of FABP4 (P15090 whole entry, species assumed): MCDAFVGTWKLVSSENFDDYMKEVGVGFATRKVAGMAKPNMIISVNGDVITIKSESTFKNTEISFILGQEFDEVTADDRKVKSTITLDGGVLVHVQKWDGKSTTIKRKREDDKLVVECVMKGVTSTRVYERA
Chain of FABP3 (P05413 whole entry, species assumed): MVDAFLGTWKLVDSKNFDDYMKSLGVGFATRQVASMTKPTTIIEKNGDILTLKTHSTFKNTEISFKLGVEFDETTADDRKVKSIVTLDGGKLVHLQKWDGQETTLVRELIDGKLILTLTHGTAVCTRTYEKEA
Chain of FABP5 (Q01469 whole entry, species assumed): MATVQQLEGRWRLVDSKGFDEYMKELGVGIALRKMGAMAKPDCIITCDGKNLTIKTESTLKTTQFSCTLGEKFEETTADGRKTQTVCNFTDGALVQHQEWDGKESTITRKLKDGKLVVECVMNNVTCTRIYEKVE
Chain of FABP7 (O15540 whole entry, species assumed): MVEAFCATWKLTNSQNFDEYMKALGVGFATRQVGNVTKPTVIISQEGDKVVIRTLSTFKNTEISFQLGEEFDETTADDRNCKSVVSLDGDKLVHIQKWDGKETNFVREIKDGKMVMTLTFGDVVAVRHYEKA

pKd (FABP5): 7.80 | pKd (FABP4): 7.74 | pKd (FABP3): 6.60 | pKd (FABP7): < 6.00 | pIC50 (BT-549 cells): 6.00 | pIC50 (OVCAR8 cells): 6.15 | Thalf ([1]; oral 10 mg/kg): 4 h | clearance [1, 2]: 5.3 mL/min/kg | half-life [1, 2]: 180 to 240 min | bioavailability ([1]; mouse, plasma, single oral dose 10 mg/kg): 95%
SMILES: CC(C)Oc1nc(NC(=O)CSCC(=O)O)c(Cl)cc1C(F)(F)F [PD151, 2-((2-((3-chloro-6-isopropoxy-5-(trifluoromethyl)pyridin-2-yl)amino)-2-oxoethyl)thio)acetic acid]
Activation of transcription by PPARα (PPARα): None of these tested compounds activated; also recorded: none of the tested compounds PD151 and PD152 activated transcription | Activation of transcription by PPARγ (PPARγ): None of these tested compounds activated; also recorded: none of the tested compounds PD151 and PD152 activated transcription | Activation of transcription by PPARδ (PPARδ): None of these tested compounds activated; also recorded: none of the tested compounds PD151 and PD152 activated transcription | pIC50 (MB-231 cells): 6.14 | Inhibition of OVCAR5 proliferation (OVCAR5 cells): inhibited proliferation of the two cell lines in a dose-dependent manner
